Data on three molecules can be found in US20260232666A1, “COMPOSITIONS AND METHODS FOR INHIBITION OF RAS” (TheRas, Inc., priority 2023, published 2026).

In test [1] the target is T1, Avi-KRAS G12C (1-169) GppNHp/RAF1 RBD-3×FLAG (52-151) (Homo sapiens, UniProt P01116, G12C).
T1 construct: Avi-KRAS G12C (1-169) GppNHp; Avi (N)
In words: Raf1 RBD-KRAS G12C-GppNHp disruption assay (protein:protein interaction HTRF). The format is biochemical. Here is the method: Biological Example 2: Disrupting KRAS G12C-Effector Binding (Protein: Protein Interaction HTRF Assay)
A protein: protein interaction (PPI) Homogeneous Time Resolved Fluorescence (HTRF) assay was used to determine the effectiveness of compounds of the present disclosure in disrupting KRAS G12C protein and effector (RAF1 Ras Binding Domain (RBD)) binding.
The HTRF assay used the following reagents and proteins: 50 nM Avi-KRAS G12C (1-169) GppNHp/RAF1 RBD-3×FLAG (52-151); 35 nM Avi-PI3K RBD-3×FLAG; Assay Buffer: 50 mM Tris pH 7.5, 100 mM NaCl, 5 mM MgCl2, 0.1% BSA, 0.01% Tween 20, 10% DMSO; Bead Buffer: 50 mM Tris pH 7.5, 0.01% Tween 20; Assay volume: 20 μL (384 well plate-low volume format); and Compound titration: 30-0.02 μM, 3× dilution series.
The HTRF assay employed the following protocol:
Compounds were dispensed in assay plate (384-well, Grenier Bio-One #784075) using Echo (model 555) with dose response settings: 200 nL final volume, titration from 100 μM as a 10-point dilution series. KRAS proteins were prepared in assay buffer, and dispensed on plates, 5 μL per well, then incubated for 1 h at room temperature, with 700 rpm shaking. RAF1 RBD were prepared in assay buffer, dispensed onto plates, 5 μL per well, and then incubated for 1 h at room temperature, with 700 rpm shaking. Reagent mix was then prepared and dispensed on plates, 10 μL per well, and then incubated for 1 h at room temperature, with 700 rpm shaking.
Plates were analyzed on an Envision plate reader using the following setting: Excitation 320 nm, Bandwidth 75 nm; Emission 615 nm, Bandwidth 85 nm; Gain 100%; Flashes 100; Lag 60 μs. Data was reported as percentage of activity, with DMSO as 100%. Data was plotted and analyzed using Prism 8.
The percent of modification of GppNHp, GTP, or GDP loaded KRAS G12C by MALDI-TOF MS, biochemical Raf1 RBD-KRAS G12C-GppNHp disruption assay IC50, and pERK inhibition IC50 of selected compounds described herein are shown in Table 4. For percent of modification at 15 minutes (MALDI-TOF MS) of GppNHp, GTP, or GDP loaded KRAS G12C: A: percent of modification ≥70%; B: 50≤percent of modification <70%; C: 10%≤percent of modification <50%; D: percent of modification <10%. […] For pERK inhibition in H358 cell assay: A: IC50≤0.1 μM; B: 0.1 μM<IC50≤1 μM; C: IC50>1 μM. Blanks in the table represent that compound was not tested in the indicated assay.
In general terms: Time-resolved FRET reads energy transfer from a long-lived donor to a nearby acceptor.

Test [2] deals with T2, GDP-loaded KRAS4b (amino acids 1-169) G12C/C118S protein (Homo sapiens, UniProt P01116, C118S/G12C).
T2 construct: KRAS4b (amino acids 1-169) G12C/C118S protein; made in house
In words: Covalent cysteine 12 modification by MALDI-TOF MS, GDP-loaded KRAS G12C. The conditions noted are these: 15 minutes reaction time point. The class given is binding. The method in brief: (§1)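 Covalent adduct formation measured by linear-mode MALDI-TOF MS as modified peak height over summed peak heights, 15 min time point reported. Reactions: KRAS4b 1-169 G12C/C118S (1 μM, loaded with GppNHp, GTP or GDP) plus compound at 1:2.5 ratio, pH 7.3 HEPES/NaCl/MgCl2, room temperature.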

Test [3] addresses T3, GTP-loaded KRAS4b (amino acids 1-169) G12C/C118S protein (Homo sapiens, UniProt P01116, C118S/G12C).
T3 construct: KRAS4b (amino acids 1-169) G12C/C118S protein; made in house
In words: Covalent cysteine 12 modification by MALDI-TOF MS, GTP-loaded KRAS G12C. The format is binding. The conditions noted are these: 15 minutes reaction time point. The method in brief:
as §1

The subject of a further test is pERK in NCI-H358 cells. In words: Cell-based pERK HTRF assay (pERK inhibition in H358 cells). The conditions noted are these: Homo sapiens, NCI-H358, 0.5 h, 30 min incubation. The method in brief: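 NCI-H358 cells were seeded at 4×10^4 cells/well in RPMI/10% FBS, then treated next day for 30 min at 0.25% DMSO (9-point, 3-fold series from 75 μM). Lysates were read by HTRF (d2/Eu cryptate antibody pair, 615 nm emission) after 4–24 h at room temperature to give pERK IC50.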

The structures appear in SMILES notation.

`C=CC(=O)N1CC[C@H](N(C)c2nc(OC[C@@]34CCCN3C[C@H](F)C4)nc3c(F)c(-c4ccc(F)c5sc(N)c(C#N)c45)c(C(F)(F)F)cc23)[C@@H]1C` [Compound 5] had an IC50 in test [1] below 500 nM. Also, the “GDP-KRAS G12C percent of modification” value in test [2] is reported as “A (percent of modification ≥70%)”.
`C=CC(=O)N1CC[C@@H](N(C)c2nc(OC[C@@]34CCCN3C[C@H](F)C4)nc3c(F)c(-c4ccc(F)c5sc(N)c(C#N)c45)c(C(F)(F)F)cc23)[C@H]1C` [Compound 6]: the IC50 in test [1] was below 500 nM. For the same molecule, the “GDP-KRAS G12C percent of modification” value in test [2] is recorded as “B (50≤percent of modification <70%)”. Also, the “GTP-KRAS G12C percent of modification” value in test [3] is “C (10%≤percent of modification <50%)”.
`C=CC(=O)N1CC[C@@H](N(C)c2nc(OC[C@@H]3CCCN3CC)nc3c(F)c(-c4ccc(F)c5sc(N)c(C#N)c45)c(Cl)cc23)[C@H]1C` [Compound 89]: the half-maximal inhibitory concentration (IC50) in the test with pERK in NCI-H358 cells was below 100 nM; in test [1], below 500 nM. In addition, the “GDP-KRAS G12C percent of modification” value in test [2] was “A (percent of modification ≥70%)”.

The IC50 is the point on the concentration scale where inhibition reaches its midpoint. Low values mean greater potency, high ones weaker potency.
